In article PMC8371902, “Phase 1 study of M2698, a p70S6K/AKT dual inhibitor, in patients with advanced cancer” (Journal of Hematology & Oncology, 2021):
Entries after “also recorded” stand apart in the source; their conditions may differ.

Test system: patients with advanced metastatic cancer
Excerpt: In this phase 1 study, dose escalation was followed by expansion cohorts of once-daily, oral M2698 in continuous 21-day cycles. Primary objectives were to determine the maximum tolerated dose (MTD), dose-limiting toxicities (DLTs), and recommended phase 2 dose (RP2D). Secondary objectives were to assess safety and tolerability, pharmacokinetics (PK, including food effect) and antitumor activity. Pharmacodynamic biomarker assessments were exploratory. Treatment was discontinued if there was disease progression, toxicity or consent withdrawal.
In Part 1, M2698 monotherapy was investigated in a dose escalation with a food effect cohort. In Part 2, M2698 was investigated as monotherapy (expansion cohort) to further characterize safety, tolerability and pharmacokinetics, and assess antitumor activity in PAM + patients without confounding markers (exploratory).
Dose escalation analysis included all patients who experienced a DLT and those who received ≥ 80% of planned M2698 doses in cycle 1 without experiencing a DLT. Safety analysis included all patients who received ≥ 1 dose of M2698. PK analysis included all patients who received ≥ 1 dose of M2698 and had measurable plasma concentrations. Dose proportionality was tested using the power model (linear regression approach on the log -transformed scale).

Structure (SMILES): NC(=O)c1cccc2c(N[C@H](CN3CCC3)c3ccc(Cl)c(C(F)(F)F)c3)ncnc12 [M2698]
- M2698-related TEAE: Vomiting (Overall N=62): 2 (3.2) n (%)
- M2698-related TEAE: White blood cell count decreased (Overall N=62): 1 (1.6) n (%)
- Maximum tolerated dose (MTD) of M2698 (daily): no formal MTD was determined; also recorded: no MTD was reached
- Number of DLTs observed (dose escalation): two
- Grade >3 TEAE: GGT increased (in vivo): 4.8%
- Grade >3 TEAE: abdominal pain (in vivo): 3.2%
- Grade >3 TEAE: acute kidney injury (in vivo): 4.8%
- Grade >3 TEAE: acute respiratory failure (in vivo): 3.2%
- Grade >3 TEAE: anemia (in vivo): 9.7%
- Grade >3 TEAE: blood AP increased (in vivo): 3.2%
- Grade >3 TEAE: blood creatine phosphokinase increased (in vivo): 3.2%
- Grade >3 TEAE: cardiac arrest (in vivo): 3.2%
- Grade >3 TEAE: constipation (in vivo): 3.2%
- Grade >3 TEAE: disease progression (in vivo): 3.2%
- Grade >3 TEAE: hypertension (in vivo): 3.2%
- Grade >3 TEAE: hyponatremia (in vivo): 6.5%
- Grade >3 TEAE: nausea (in vivo): 3.2%
- Grade >3 TEAE: pleural effusion (in vivo): 3.2%
- Grade >3 TEAE: pneumonia (in vivo): 4.8%
- Grade >3 TEAE: septic shock (in vivo): 3.2%
- Grade >3 TEAE: small intestinal obstruction (in vivo): 3.2%
- Grade >3 TEAE: urinary tract infection (in vivo): 4.8%
- Grade >3 TEAE: vomiting (in vivo): 4.8%
- M2698-related TEAE abnormal dreams (in vivo): 9.7%
- M2698-related TEAE diarrhea (in vivo): 11.3%
- M2698-related TEAE fatigue (in vivo): 6.5%
- M2698-related TEAE nausea (in vivo): 19.4%
- M2698-related TEAE tremor (in vivo): 6.5%
- M2698-related TEAE: Abnormal dreams (in vivo): 6 (9.7) number of patients (percent)
- M2698-related TEAE: Diarrhea (in vivo): 7 (11.3) number of patients (percent)
- M2698-related TEAE: Fatigue (in vivo): 4 (6.5) number of patients (percent)
- M2698-related TEAE: Nausea (in vivo): 12 (19.4) number of patients (percent)
- M2698-related TEAE: Tremor (in vivo): 4 (6.5) number of patients (percent)
- M2698-related TEAEs: patients with ≥1 event (in vivo): 34 (54.8) number of patients (percent)
- Patients with M2698-related TEAEs (in vivo): 54.8%
- Patients with M2698-related TEAEs grade ≥ 3 (in vivo): 12.9%
- Serious TEAE related to M2698 (in vivo): 5 (8.1) number of patients (percent)
- Serious TEAEs (in vivo): 26 (41.9) number of patients (percent)
- Serious TEAEs attributed to M2698 (in vivo): 8.1 % of patients
- TEAE leading to permanent discontinuation of any trial treatment (in vivo): 6 (9.7%) number of patients (percent)
- TEAE leading to temporary discontinuation of M2698 (in vivo): 29 (46.8%) number of patients (percent)
- TEAE related to M2698 (in vivo): 34 (54.8%) number of patients (percent)
- TEAE related to M2698, grade ≥ 3 (in vivo): 8 (12.9%) number of patients (percent)
- TEAE: ALT increased (in vivo): 4 (6.5) n (%)
- TEAE: AST increased (in vivo): 2 (3.2) n (%)
- TEAE: Abdominal pain (in vivo): 5 (8.1) n (%)
- TEAE: Abnormal dreams (in vivo): 6 (9.7) n (%)
- TEAE: Anemia (in vivo): 13 (21.0) n (%)
- TEAE: Anxiety (in vivo): 6 (9.7) n (%)
- TEAE: Arthralgia (in vivo): 1 (1.6) n (%)
- TEAE: Asthenia (in vivo): 2 (3.2) n (%)
- TEAE: Back pain (in vivo): 2 (3.2) n (%)
- TEAE: Blood AP increased (in vivo): 4 (6.5) n (%)
- TEAE: Blood bilirubin increased (in vivo): 2 (3.2) n (%)
- TEAE: Blood creatinine increased (in vivo): 7 (11.3) n (%)
- TEAE: Chills (in vivo): 2 (3.2) n (%)
- TEAE: Constipation (in vivo): 14 (22.6) n (%)
- TEAE: Cough (in vivo): 11 (17.7) n (%)
- TEAE: Decreased appetite (in vivo): 9 (14.5) n (%)
- TEAE: Dehydration (in vivo): 7 (11.3) n (%)
- TEAE: Depression (in vivo): 3 (4.8) n (%)
- TEAE: Diarrhea (in vivo): 17 (27.4) n (%)
- TEAE: Disease progression (in vivo): 2 (3.2) n (%)
- TEAE: Dizziness (in vivo): 9 (14.5) n (%)
- TEAE: Dry mouth (in vivo): 3 (4.8) n (%)
- TEAE: Dry skin (in vivo): 0 (0) n (%)
- TEAE: Dyspnea (in vivo): 4 (6.5) n (%)
- TEAE: Edema peripheral (in vivo): 1 (1.6) n (%)
- TEAE: Fatigue (in vivo): 21 (33.9) n (%)
- TEAE: GGT increased (in vivo): 7 (11.3) n (%)
- TEAE: Gait disturbance (in vivo): 2 (3.2) n (%)
- TEAE: Headache (in vivo): 3 (4.8) n (%)
- TEAE: Hyperglycemia (in vivo): 1 (1.6) n (%)
- TEAE: Hypertension (in vivo): 4 (6.5) n (%)
- TEAE: Hypoalbuminemia (in vivo): 5 (8.1) n (%)
- TEAE: Hypocalcemia (in vivo): 4 (6.5) n (%)
- TEAE: Hypokalemia (in vivo): 4 (6.5) n (%)
- TEAE: Hypomagnesemia (in vivo): 2 (3.2) n (%)
- TEAE: Hyponatremia (in vivo): 5 (8.1) n (%)
- TEAE: Insomnia (in vivo): 2 (3.2) n (%)
- TEAE: Muscle spasms (in vivo): 0 (0) n (%)
- TEAE: Muscular weakness (in vivo): 1 (1.6) n (%)
- TEAE: Nasopharyngitis (in vivo): 1 (1.6) n (%)
- TEAE: Nausea (in vivo): 23 (37.1) n (%)
- TEAE: Neutropenia (in vivo): 1 (1.6) n (%)
- TEAE: Pain in extremity (in vivo): 3 (4.8) n (%)
- TEAE: Pyrexia (in vivo): 11 (17.7) n (%)
- TEAE: Rash (in vivo): 1 (1.6) n (%)
- TEAE: Tremor (in vivo): 5 (8.1) n (%)
- TEAE: Urinary tract infection (in vivo): 5 (8.1) n (%)
- TEAE: Vision blurred (in vivo): 3 (4.8) n (%)
- TEAE: Vomiting (in vivo): 12 (19.4) n (%)
- TEAE: Weight decrease (in vivo): 4 (6.5) n (%)
- TEAEs (in vivo): 61 (98.4%) number of patients (percent)
- TEAEs, grade ≥ 3 (in vivo): 36 (58.1%) number of patients (percent)
- TEAE leading to death (no deaths considered related to M2698, trastuzumab or tamoxifen): 6 (9.7) number of patients (percent)
- Recommended phase 2 dose (RP2D) of M2698 (once daily (QD)): 240 mg
- Psychiatric event attributed to M2698 (one patient, 320 mg, cycle 2): grade 3 psychosis
- Grade 2–3 gastrointestinal adverse events requiring dose reduction (patients with prolonged exposure to M2698 ≥ 320 mg): 19.4%
